Assay [1] relates to H460 tumors. In words: Chick embryo chorioallantoic membrane (CAM) assay, in ovo efficacy. The format is in vivo, human tumor cells on chick embryo CAM. The note with it: for doses giving statistically significant regression of tumor growth (mean tumor weight at E18) / doses giving reduction of tumor growth comparable to SoC: L2Zn3 54, 108, 216 μM, L2Cu3 42, 84, 168 μM; for doses giving statistically significant regression of tumor growth (mean tumor weight at E18): 100 μl on tumor graft at E11, E13, E15, E17; for doses giving reduction of tumor growth comparable to SoC: SoC paclitaxel; for H460 metastatic load in the lower CAM (qPCR for Alu sequences): all three tested doses. On the procedure: FIG. 21. Activity of [L2Cu3]^6+ and [L2Zn3]^6+ against primary H460 tumors. The results presented represent the mean tumour weight±SEM following treatment at 3 different doses of [L2Cu3]^6+ and [L2Zn3]^6+: L2Zn3 [1]=54 μM, L2Zn3 [2]=108 μM, L2Zn3 [3]=216 μM; L2Cu3 [1]=42 μM, L2Cu3[2]=84 μM, L2Cu3[3]=168 μM. SoC paclitaxel. Statistical analysis by one way ANOVA (*): 0.05≥p value >0.01; (**): 0.01≥p value >0.001; (***): 0.001≥p value; (****): 0.0001≥p value. Number per experimental group n=10-13.
FIG. 22. Evaluation of the effects of [L2Cu3]^6+ and [L2Zn3]^6+ on primary H460 metastasis to the lower CAM. Relative ALU expression (relative to chicken GAPDH) as a quantitive marker of metastasis of human cells to the lower CAM. L2Zn3 [1]=54 μM, L2Zn3 [2]=108 μM, L2Zn3 [3]=216 μM; L2Cu3 [1]=42 μM, L2Cu3[2]=84 μM, L2Cu3[3]=168 μM. SoC paclitaxel. Relative expression ±SEM. Statistical analysis by one way ANOVA (*): 0.05≥p value >0.01; (**): 0.01≥p value >0.001; (***): 0.001≥p value; (****): 0.0001≥p value. Number per experimental group n=7-8.
[L2Cu3]^6+ and [L2Zn3]^6+ were evaluated at three different doses for in ovo anti-cancer activity, toxicity and anti-metastatic activity against tumors initiated from three different human cancer cell line models (H460, HT29, HCT116), in the chick embryo chorioallantoic membrane (CAM) assay.
Each compound was provided to the contract research organisation (CRO) Inovotion (La Tronche, France) conducting the in ovo study, as a powder pre-weighed in single vials (2 equivalents of ligand, 3 equivalents of metal; and stored at room temperature). Before use, this was then dissolved in DMSO to 50 mM to generate a stock solution and further freshly diluted in RPM11640 or McCoys aqueous cell culture media for administration.
A standard of care (SoC) drug for the particular tumour type was tested concurrently as a comparative control for in vivo efficacy and toxicity evaluation. A solvent control served as a negative control for both SoC and experimental compounds.
10^6 tumor cells (H460, HT29 or HCT116) were grafted onto the upper chorioallantoic membrane (CAM) of the developing chick embryo on embryonic day 9 (E9). Access to the upper CAM was through a small hole drilled through the eggshell of fertilized White Leghorn eggs (into the air sac) on E9 (15 eggs per experimental group).
100 μl of freshly prepared experimental compound, vehicle control or standard-of-care (SoC) drug at their working concentrations were pipetted onto the tumor graft at E11, E13, E15 and E17. On day E18, the upper CAM (with tumor) was removed, washed by PBS buffer and then directly transferred in PFA (fixation for 48 hrs). After that, tumors were carefully cut away from normal CAM tissue and weighed.
On day E18, a 1 cm^2 portion of the lower CAM was collected (n=8 per group), stored at −20° C. and later processed to extract DNA. Samples were analysed for human genomic DNA (qPCR for Alu sequences) as a quantitative marker of tumor metastasis to the lower CAM.
(In general: Real-time PCR tracks product formation cycle by cycle.)

Assay [2] is described as follows: Phosphatase activity: hydrolysis of phenyl phosphate. How it is done:
FIG. 6. Phosphatase activity of [L2Zn3]^6+. ^31P NMR spectra using different substrates including PhOPO3 (spectra A to D), serine phosphate (spectra E to H), threonine phosphate (spectra I to L) and tyrosine phosphate (spectra M to P). Specific details for each ^31P NMR spectra are as follows: Spectra A, E, I and M represent substrate alone (44 hrs incubated @ 37° C.); Spectra B, F, J and N represents [L2Zn3]^6+ plus substrate (t=0 min); Spectra C, G, K and O represents [L2Zn3]^6+ plus substrate incubated @ 37° C. for 19 hours; Spectra D, H, L and […] represents [L2Zn3]^6+ plus substrate incubated @ 37° C. for 44 hours. The ^31P NMR of [L2Zn3(PO4)]^3+ gives a signal at 8.6 ppm.
Only [L2Zn3(PO4)]^3+ was observed, coupled with a rapid yellowing of the solution due to the formation of 4-nitrophenolate.
The rate of substrate hydrolysis is also dependent upon the metal used in the self-assembly process.

Assay [3] concerns 140 human kinases. Nature of the assay: Cell-free screen of 140 kinases (33P ATP, Premier Screen). Format: biochemical. The conditions noted are these: 10 μM complex. On the procedure: FIG. 9. Effects of [L2Zn3]^6+ and [L2Cu3]^6+ on the activity of purified human kinases. a,b, Percentage inhibition of the indicated kinases by [L2Zn3]^6+ (a) and [L2Cu3]^6+ (b) respectively at a concentration of 10 μM; full results are presented in the ESI. c,d, Kinases whose activity is stimulated by [L2Zn3]^6+ (c) or [L2Cu3]^6+ (d) complexes. e,f, Kinome map showing kinases inhibited (red) or stimulated (green) by [L2Zn3]^6+ (e) or [L2Cu3]^6+ (f). III ustration reproduced courtesy of Cell Signalling Technology Inc (www.cellsignal.com)
FIG. 16. The effect of [L2Zn3]^6+ and [L2Cu3]^6+ on the activity of recombinant human kinases. The compounds were submitted to the MRC Protein Phosphorylation and Ubiquitination Unit International Centre for Kinase Profiling (University of Dundee) and tested at a concentration of 10 μM against 140 human kinases (Premier Screen).
Given the ability of the Zn^2+ complex to dephosphorylate amino acids serine, tyrosine and threonine (FIG. 6) and the Cu^2+ complex to bind phenyl phosphate (FIG. 3), it was examined whether the complexes affect the activity of kinases. This was assessed in a cell-free screen of 140 kinases using purified recombinant human kinases and substrate peptides incubated in the presence of ^33P ATP and 10 μM complex or solvent control. […]

The values that follow come from US20230322815A1, “NOVEL COMPOUNDS AND THERAPEUTIC USES THEREOF” (University of Huddersfield, priority 2020, published 2023).

SMILES strings stand for the structures.

On to `[Cu+2].[Cu+2].[Cu+2].c1ccc(-c2csc(NCCN(CCNc3nc(-c4ccccn4)cs3)CCNc3nc(-c4ccccn4)cs3)n2)nc1.c1ccc(-c2csc(NCCN(CCNc3nc(-c4ccccn4)cs3)CCNc3nc(-c4ccccn4)cs3)n2)nc1` [[L2Cu3]^6+], for which, in assay [1], the “doses giving statistically significant regression of tumor growth (mean tumor weight at E18)” value was “the two highest tested doses”, the “doses giving reduction of tumor growth comparable to SoC” value is “the highest dose” and the “H460 metastatic load in the lower CAM (qPCR for Alu sequences)” value is given as “no statistically significant metastatic regression”. Further, in assay [2] (solid-state and ESI-MS data), the “hydrolysis of phenyl phosphate” value is on record as “does not hydrolyse phenyl phosphate”. Besides, the “inhibition of the most potently inhibited kinases” value in assay [3] is listed as about 100%.

In the case of `[Zn+2].[Zn+2].[Zn+2].c1ccc(-c2csc(NCCN(CCNc3nc(-c4ccccn4)cs3)CCNc3nc(-c4ccccn4)cs3)n2)nc1.c1ccc(-c2csc(NCCN(CCNc3nc(-c4ccccn4)cs3)CCNc3nc(-c4ccccn4)cs3)n2)nc1` [[L2Zn3]^6+], in assay [1], the “doses giving statistically significant regression of tumor growth (mean tumor weight at E18)” value is reported as “all three tested doses”, the “doses giving reduction of tumor growth comparable to SoC” value is reported as “all three tested doses” and the “H460 metastatic load in the lower CAM (qPCR for Alu sequences)” value is listed as “Statistically significant decreases”. Further, the “hydrolysis of PhOPO3^2− by 31P NMR” value in assay [2] (25%:75% DMSO and buffered H2O (HEPES pH 7.5), 37° C., after 44 hrs) is on record as “virtually no signal corresponding to PhOPO3^2− is observed”. Also, the “inhibition of the most potently inhibited kinases” value in assay [3] is about 100%.
